Laboratory results: patent publication US7314616B1, “Additive containing an anti-fungal amount of a salt of formic acid” (priority 2003, dated 2008)

Test system: fungi spores
Experiment: inhibitory effect on the growth of fungi spores
Format: cell-based

Structure (SMILES) | inhibitory effect on the growth of fungi spores
COC1=CC(=O)O[C@@H](CCc2ccc3c(c2)OCO3)C1 [dihydromethysticin] | exhibit inhibitory effect
COC1=CC(=O)O[C@@H](/C=C/c2ccccc2)C1 [kawain] | exhibit inhibitory effect
COC1=CC(=O)O[C@@H](CCc2ccccc2)C1 [diydrokawain] | exhibit inhibitory effect
